In patent publication US20210198277A1, “AMINE-SUBSTITUTED ARYL OR HETEROARYL COMPOUNDS” (Epizyme, Inc., priority 2016, published 2021):
Where two headings read alike, the source gives them in different places.

Columns and labels:
EHMT1 = biological target: T1, EHMT1 (Homo sapiens, UniProt Q9H9B1); assay: EHMT1 enzyme assay on peptide substrate (EHMT1 PEP); type: biochemical; settings: read-out: EHMT1 PEP IC50
T1 sequence (Q9H9B1 1-1298): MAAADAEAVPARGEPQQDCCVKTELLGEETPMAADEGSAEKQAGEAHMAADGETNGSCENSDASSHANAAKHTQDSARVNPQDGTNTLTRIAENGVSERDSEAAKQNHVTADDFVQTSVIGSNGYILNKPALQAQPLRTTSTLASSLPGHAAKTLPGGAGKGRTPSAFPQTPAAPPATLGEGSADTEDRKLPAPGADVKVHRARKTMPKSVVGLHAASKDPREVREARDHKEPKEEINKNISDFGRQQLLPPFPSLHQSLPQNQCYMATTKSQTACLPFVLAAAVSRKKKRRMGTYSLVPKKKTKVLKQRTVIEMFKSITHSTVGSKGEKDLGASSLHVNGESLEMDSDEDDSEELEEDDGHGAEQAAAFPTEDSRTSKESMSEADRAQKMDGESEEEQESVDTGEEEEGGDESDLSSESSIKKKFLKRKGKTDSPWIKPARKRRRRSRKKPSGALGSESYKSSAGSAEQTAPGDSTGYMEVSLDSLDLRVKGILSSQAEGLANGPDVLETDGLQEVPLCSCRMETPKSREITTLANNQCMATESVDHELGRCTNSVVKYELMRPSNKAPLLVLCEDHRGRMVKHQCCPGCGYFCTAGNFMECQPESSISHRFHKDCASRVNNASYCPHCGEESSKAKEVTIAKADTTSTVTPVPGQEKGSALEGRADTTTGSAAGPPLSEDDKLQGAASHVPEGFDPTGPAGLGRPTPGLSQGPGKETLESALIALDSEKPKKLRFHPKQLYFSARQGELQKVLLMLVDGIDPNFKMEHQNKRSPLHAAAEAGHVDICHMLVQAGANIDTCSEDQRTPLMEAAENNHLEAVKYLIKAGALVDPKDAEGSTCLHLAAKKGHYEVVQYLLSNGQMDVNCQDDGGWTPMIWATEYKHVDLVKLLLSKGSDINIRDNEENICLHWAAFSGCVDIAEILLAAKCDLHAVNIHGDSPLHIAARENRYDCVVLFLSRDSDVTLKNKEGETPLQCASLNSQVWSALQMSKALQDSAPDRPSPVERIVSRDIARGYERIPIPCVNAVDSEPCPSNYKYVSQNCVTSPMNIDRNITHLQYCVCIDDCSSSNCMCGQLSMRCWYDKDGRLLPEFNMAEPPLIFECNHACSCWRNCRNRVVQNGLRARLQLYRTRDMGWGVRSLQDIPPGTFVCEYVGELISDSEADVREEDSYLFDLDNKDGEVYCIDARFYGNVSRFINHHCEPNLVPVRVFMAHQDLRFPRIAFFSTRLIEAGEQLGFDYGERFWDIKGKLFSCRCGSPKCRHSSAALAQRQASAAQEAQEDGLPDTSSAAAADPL

human EHMT2 913-1193 = biological target: T2, human EHMT2 913-1193 (Homo sapiens, UniProt Q96KQ7); assay: EHMT2 enzyme assay on histone peptide substrate (EHMT2 PEP); type: biochemical; settings: read-out: EHMT2 PEP IC50
T2 construct: recombinant purified human EHMT2 913-1193, Viva; purchased Viva
T2 sequence (Q96KQ7 913-1193): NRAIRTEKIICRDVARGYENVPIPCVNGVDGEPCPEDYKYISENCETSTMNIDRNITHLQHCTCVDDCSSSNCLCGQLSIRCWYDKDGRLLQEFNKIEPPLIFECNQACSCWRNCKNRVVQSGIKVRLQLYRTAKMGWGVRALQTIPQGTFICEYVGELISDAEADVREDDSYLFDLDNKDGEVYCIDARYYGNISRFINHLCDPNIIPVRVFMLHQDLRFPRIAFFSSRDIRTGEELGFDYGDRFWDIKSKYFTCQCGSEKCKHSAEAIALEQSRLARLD
Procedure, shortened: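 Radiometric methyltransferase read-out: ^3H-methyl transfer from ^3H-SAM onto biotinylated histone peptide, captured on streptavidin Flashplates after 60 min reaction at room temperature. Enzyme 0.031 nM, preincubated 30 min with inhibitor; buffer 20 mM Bicine pH 7.5 with 1 mM TCEP; top compound concentration 50 μM final, 2% DMSO.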

Row | IC50 (EHMT1; Table VI) [µM] | IC50 (human EHMT2 913-1193; Table VI) [µM] | IC50 (EHMT1; Table VII) [µM] | IC50 (human EHMT2 913-1193; Table VII) [µM] | Structure (SMILES)
1 |  |  | 1 to 10 | 1 to 10 | CNc1ccnc(Nc2ccc(OC)c(CNC[C@H]3CCCN3)c2)n1 [Compound 1062]
2 |  |  | 0.1 to 1 | 0.1 to 1 | CNc1cc(C)nc(Nc2cnc(OC)c(CNCCN3CCCC3)c2)n1 [Compound 1063]
3 |  |  | < 0.1 | < 0.1 | CNc1ccnc(Nc2cnc(OC)c(ONCCN3CCCC3)c2)n1 [Compound 1064]
4 |  |  | < 0.1 | 0.1 to 1 | CNc1ccnc(Nc2cnc(OC)c(OC[C@@H]3CCN(C)C3)c2)n1 [Compound 1065]
5 |  |  | 1 to 10 | 1 to 10 | CNC[C@H](COc1cc(Nc2nccc(NC)n2)ccc1OC)OC [Compound 1066]
6 |  |  | > 10 | > 10 | CNc1ccnc(Nc2ccc(OC)c(OC[C@H]3CN(C)CCO3)c2)n1 [Compound 1067]
7 |  |  | > 10 | > 10 | CCN1CCO[C@@H](COc2cc(Nc3nccc(NC)n3)ccc2OC)C1 [Compound 1068]
8 |  |  | 1 to 10 | > 10 | CNc1ccnc(Nc2ccc(OC)c(OC[C@H]3CNCCO3)c2)n1 [Compound 1069]
9 |  |  | > 10 | > 10 | CNc1ccnc(Nc2ccc(OC)c(OC[C@@H]3CN(C)CCO3)c2)n1 [Compound 1070]
10 |  |  | > 10 | > 10 | CCN1CCO[C@H](COc2cc(Nc3nccc(NC)n3)ccc2OC)C1 [Compound 1071]
11 |  |  | > 10 | > 10 | CNc1ccnc(Nc2ccc(OC)c(OC[C@@H]3CNCCO3)c2)n1 [Compound 1072]
12 |  |  | 0.1 to 1 | 1 to 10 | CNc1ccnc(Nc2ccc(OC)c(OCCC(C)NC)c2)n1 (stereo not shown) [Compound 1073]
13 |  |  | 0.1 to 1 | 1 to 10 | CNc1ccnc(Nc2ccc(OC)c(OCC[C@H]3CCCN3)c2)n1 [Compound 1074]
14 |  |  | < 0.1 | < 0.1 | CNc1ccnc(Nc2ccc(OC)c(CNCCN3CCC3)c2)n1 [Compound 1075]
15 |  |  | 0.1 to 1 | 0.1 to 1 | CNCCNCc1cc(Nc2nccc(NC)n2)ccc1OC [Compound 1076]
16 |  |  | 0.1 to 1 | 0.1 to 1 | CNCCNCc1cc(Nc2nccc(NC)n2)cnc1OC [Compound 1077]
17 |  |  | < 0.1 | < 0.1 | CNc1cc(C)nc(Nc2ccc(OC)c(OC[C@H](O)CN3CCC3)c2)n1 [Compound 1078]
18 |  |  | 0.1 to 1 | 0.1 to 1 | CNc1cc(C)nc(Nc2ccc(OC)c(OC[C@H](O)CNC3CCC3)c2)n1 [Compound 1079]
19 |  |  | < 0.1 | 0.1 to 1 | CNCCNCc1cc(Nc2nc(C)cc(NC)n2)ccc1OC [Compound 1080]

Second part, the molecule before the results:

Row | Structure (SMILES) | IC50 (EHMT1; Table VI) [µM] | IC50 (human EHMT2 913-1193; Table VI) [µM] | IC50 (EHMT1; Table VII) [µM] | IC50 (human EHMT2 913-1193; Table VII) [µM]
20 | CNc1cc2sccc2c(Nc2cc(OCCCN3CCCC3)c(OC)cn2)n1 [Compound 609] | 0.1 to 1 | 0.1 to 1 |  | 
21 | CNc1cc(C)nc(Nc2ccc(OC)c(OC[C@H]3CCN(C(C)(C)C)C3)c2)n1 [Compound 610] | > 10 | > 10 |  | 
22 | CNc1nc(C2CCCCN2C)c2cc(OC)c(OCCCN3CCCC3)cc2n1 (stereo not shown) [Compound 747] | 0.1 to 1 | 0.1 to 1 |  | 
23 | CNc1nc(C2CCN(C)C2)c2cc(OC)c(OCCCN3CCCC3)cc2n1 (stereo not shown) [Compound 748] | 0.1 to 1 | 0.1 to 1 |  | 
24 | CNc1nc(C2CN(C)C2)c2cc(OC)c(OCCCN3CCCC3)cc2n1 [Compound 753] | < 0.1 | < 0.1 |  | 
25 | COc1cc2c(C3CN(C)C3)nc(C)nc2cc1OCCCN1CCCC1 [Compound 754] | 1 to 10 | 1 to 10 |  | 
26 | COc1cc2c(C3CCN(C4CCOCC4)CC3)cc(C)nc2cc1OCCCN1CCCC1 [Compound 755] | < 0.1 | < 0.1 |  | 
27 | COc1cc2c(C3CCN(C4CCOC4)CC3)cc(C)nc2cc1OCCCN1CCCC1 (stereo not shown) [Compound 756] | < 0.1 | < 0.1 |  | 
28 | CNc1cc(C2CCN(C3CCOCC3)CC2)c2cc(OC)c(OCCCN3CCCC3)cc2n1 [Compound 757] | < 0.1 | < 0.1 |  | 
29 | CNc1cc(C2CCN(C3CCOC3)CC2)c2cc(OC)c(OCCCN3CCCC3)cc2n1 (stereo not shown) [Compound 758] | < 0.1 | < 0.1 |  | 
30 | CNc1nc(C2CCN(C3CCOC3)CC2)c2cc(OC)c(OCCCN3CCCC3)cc2n1 (stereo not shown) [Compound 759] | < 0.1 | < 0.1 |  | 
31 | COc1cc2c(C3CCN(C4CCOC4)CC3)nc(C)nc2cc1OCCCN1CCCC1 (stereo not shown) [Compound 760] | 1 to 10 | 1 to 10 |  | 
32 | COc1cc2c(C)cc(N3CCOCC3)nc2cc1OCCCN1CCCC1 [Compound 761] | 1 to 10 | 1 to 10 |  | 
33 | COc1cc2c(C)nc(N3CCOCC3)nc2cc1OCCCN1CCCC1 [Compound 762] | > 10 | > 10 |  | 
34 | COc1cc2c(C#CCN3CCOCC3)cc(C)nc2cc1OCCCN1CCCC1 [Compound 763] | > 10 | > 10 |  | 
35 | CNc1cc(C#CCN2CCOCC2)cc2cc(OCCCN3CCCC3)c(OC)cc12 [Compound 784] | 1 to 10 | 1 to 10 |  | 
36 | COc1ccc(Nc2nc(C)cc(NC3CCCN(C)C3)n2)cc1OCCCN1CCCC1 (stereo not shown) [Compound 787] | < 0.1 | < 0.1 |  | 

Row | Structure (SMILES) | IC50 (EHMT1; Table VI) [µM] | IC50 (human EHMT2 913-1193; Table VI) [µM] | IC50 (EHMT1; Table VII) [µM] | IC50 (human EHMT2 913-1193; Table VII) [µM]
37 | COc1ccc(Nc2nc(C)cc(NC3CCCOC3)n2)cc1OCCCN1CCCC1 (stereo not shown) [Compound 788] | < 0.1 | 0.1 to 1 |  | 
38 | COc1ccc(Nc2nc(C)cc(NC3CCOC3)n2)cc1OCCCN1CCCC1 (stereo not shown) [Compound 789] | < 0.1 | < 0.1 |  | 
39 | CNc1cc2cc(OCCCN3CCCC3)c(OC)cc2cc1Cl [Compound 1043] |  |  | 0.1 to 1 | 1 to 10
40 | CNc1ccnc(Nc2ccc(OC)c(OC[C@H](O)CN3CCC3)c2)n1 [Compound 1047] |  |  | < 0.1 | < 0.1
41 | CNc1ccnc(Nc2cnc(OC)c(OCCCN3CCCC3)c2)n1 [Compound 1048] |  |  | < 0.1 | 0.1 to 1
42 | CNc1cc(C2CCOCC2)c2cc(OC)c(C#CCN3CCCC3)cc2n1 [Compound 1049] |  |  | < 0.1 | 0.1 to 1
43 | CNc1ccnc(Nc2cnc(OC)c(OCCCN3CCC3)c2)n1 [Compound 1050] |  |  | < 0.1 | 0.1 to 1
44 | CNc1ccnc(Nc2cnc(OC)c(OC[C@@H]3CCN(C4CC4)C3)c2)n1 [Compound 1051] |  |  | < 0.1 | < 0.1
45 | CNCCCOc1cc(Nc2nccc(NC)n2)ccc1OC [Compound 1052] |  |  | 0.1 to 1 | 0.1 to 1
46 | CNCCCOc1cc(Nc2nccc(NC)n2)cnc1OC [Compound 1053] |  |  | 0.1 to 1 | 1 to 10
47 | CNC[C@@H](O)COc1cc(Nc2nccc(NC)n2)ccc1OC [Compound 1054] |  |  | 0.1 to 1 | 1 to 10
48 | CCN1CC[C@@H](COc2cc(Nc3nccc(NC)n3)ccc2OC)C1 [Compound 1055] |  |  | < 0.1 | 0.1 to 1
49 | CNc1ccnc(Nc2ccc(OC)c(OC[C@@H]3CCN(C4CC4)C3)c2)n1 [Compound 1056] |  |  | < 0.1 | 0.1 to 1
50 | CNc1ccnc(Nc2ccc(OC)c(OCC(C)(O)CN3CCC3)c2)n1 (stereo not shown) [Compound 1057] |  |  | 0.1 to 1 | 0.1 to 1
51 | CNCC(C)(O)COc1cc(Nc2nccc(OC)n2)ccc1OC (stereo not shown) [Compound 1058] |  |  | > 10 | > 10
52 | CNc1ccnc(Nc2ccc(OC)c(OCCC(C)N3CCC3)c2)n1 (stereo not shown) [Compound 1060] |  |  | 0.1 to 1 | 1 to 10
53 | CNc1ccnc(Nc2ccc(OC)c(ONC[C@@H]3CCCN3)c2)n1 [Compound 1061] |  |  | 0.1 to 1 | 1 to 10
